Assay results published in article PMC5802278, “Molecular and cellular mechanisms of HIF prolyl hydroxylase inhibitors in clinical trials” (Chemical Science, 2017).
Like-named read-outs stand apart in the source and are kept apart here.

What was measured:
[1] = system: HIF target genes in Hep3b cells; assay: RT-qPCR of HIF target genes; format: cell-based, human; settings: 24 hours, 2.5 or 10 μM
Protocol: The upregulation of HIF-α isoforms has multiple downstream effects.[1],[30],[86],[87] To investigate whether the inhibitors have differential effects on HIF target genes we measured their mRNA levels for a set of HIF target genes after 24 hours in Hep3b cells. The panel aimed to cover a small, yet representative, HIF target gene set. […]. […]. page 16:
Cells were lysed using the TRI reagent® (Sigma T9424). RNA was then extracted by phase separation following the manufacturer’s protocol. Extracted RNA was treated with the RNase-free DNase I (DNA-free™ DNA Removal Kit, Applied Biosystems AM1906) to eliminate contaminating DNA. For reverse transcription, 1μg of DNase-treated RNA samples were used for cDNA synthesis using High-Capacity cDNA Reverse Transcription Kit (Thermo Fisher Scientific 4368814). […] Quantitation of 18 relative expression level was analyzed using the ΔΔCT method with HPRT as a reference gene using; statistical analyses of the biological and technical repeats were calculated using StepOne Software (version 2.2.2). […]
Cell seeding and inhibitor treatments were performed in parallel in the same manner as used for the HRE reporter assay (see above). […] Fluorescence signals were measured with an excitation wavelength of 544 nm and emission wavelength of 590 nm using a FLUOstar Omega Microplate Reader (BMG

[2] = system: patients with non-dialysis dependent (NDD) CKD (stage 3a/b, 4, or 5); set-up: method as in ref 33 (a number printed in a supplementary file, which may have a reference list of its own: not looked up in the article's list); settings: starting 450 mg daily, titrated, 20 weeks; cited from earlier work
[3] = system: patients with anaemia secondary to CKD stage 3 or 4; set-up: method as in ref 32 (a number printed in a supplementary file, which may have a reference list of its own: not looked up in the article's list); settings: 6 weeks, cited from earlier work
[4] = system: patients with haemodialysis CKD, Hb 9.5-12.0 g/dL; set-up: method as in ref 42 (a number printed in a supplementary file, which may have a reference list of its own: not looked up in the article's list); settings: 5 mg daily, 4 weeks; cited from earlier work
[5] = system: patients with haemodialysis CKD, Hb 9.5-12.0 g/dL; set-up: method as in ref 43 (a number printed in a supplementary file, which may have a reference list of its own: not looked up in the article's list); settings: cited from earlier work
[6] = system: patients with NDD CKD stage 3-5 and Hb 8.5-11.0 g/dL; set-up: method as in ref 42 (a number printed in a supplementary file, which may have a reference list of its own: not looked up in the article's list); settings: highest dose (5 mg) daily, over 4 weeks; cited from earlier work
[7] = system: NDD-CKD subjects with Hb ≤ 11.0 g/dL; set-up: method as in ref 34 (a number printed in a supplementary file, which may have a reference list of its own: not looked up in the article's list); settings: 4 weeks, cited from earlier work
[8] = system: patients with ESRD and Hb ≤ 10.0 g/dL; set-up: method as in ref 37 (a number printed in a supplementary file, which may have a reference list of its own: not looked up in the article's list); settings: cited from earlier work
[9] = system: patients with ESRD on haemodialysis and previously with Epoetin Alfa; set-up: method as in ref 38 (a number printed in a supplementary file, which may have a reference list of its own: not looked up in the article's list); settings: TIW, 7 weeks, cited from earlier work
[10] = system: patients with NDD CKD (stage 3 or 4) and Hb ≤ 10.5 g/dL; set-up: method as in ref 36 (a number printed in a supplementary file, which may have a reference list of its own: not looked up in the article's list); settings: after 16 weeks of treatment, 143 subjects evaluable for efficacy; cited from earlier work
[11] = system: patients with stable end-stage renal disease (ESRD) treated with haemodialysis; set-up: method as in ref 35 (a number printed in a supplementary file, which may have a reference list of its own: not looked up in the article's list); settings: cited from earlier work
[12] = system: patients with NDD CKD and Hb < 10.0 g/dL; set-up: method as in ref 38 (a number printed in a supplementary file, which may have a reference list of its own: not looked up in the article's list); settings: TIW, 9 weeks, cited from earlier work
[13] = system: pre-dialysis subjects already on Darbepoetin treatment; set-up: method as in ref 40 (a number printed in a supplementary file, which may have a reference list of its own: not looked up in the article's list); settings: 16 weeks; cited from earlier work
[14] = system: subjects with non-dialysis CKD stage 3-5 and Hb < 10.5 g/dL; set-up: method as in ref 39 (a number printed in a supplementary file, which may have a reference list of its own: not looked up in the article's list); settings: all Molidustat doses (25, 50, 75 mg daily; 25, 50 mg BID), 16 weeks; cited from earlier work

For `O=C(O)CNC(=O)c1ncc(-c2cccc(Cl)c2)cc1O` [Vadadustat], the “upregulation of assayed HIF target genes” value [1] is given as “failed to obviously upregulate assayed HIF target genes”, the “subjects with Hb increase ≥ 1.2 g/dL from baseline or mean Hb ≥ 11.0 g/dL during last 2 weeks of treatment” value [2] is given as 55% and the “subjects with Hb increase ≥ 1 g/dL from baseline” value ([3]; 240 mg daily) is given as 31%. For the same compound, the “subjects with Hb increase ≥ 1 g/dL from baseline” value ([3]; 370 mg daily) was 40%, the “subjects with Hb increase ≥ 1 g/dL from baseline” value ([3]; 500 mg daily) was 65% and the “subjects with Hb increase ≥ 1 g/dL from baseline” value ([3]; 630 mg daily) was 78%.
For `O=C(O)CNC(=O)C1C(=O)N(C2CCCCC2)C(=O)N(C2CCCCC2)C1=O` [GSK1278863], the “Hb level maintenance after switch from rhEPO” value [4] is given as “maintained”, the “mean Hb increase from baseline at week 4” value ([5]; 4 mg daily) is given as -0.28 g/dL and the “mean Hb increase from baseline at week 4” value ([5]; 6 mg daily) is given as -0.01 g/dL. For the same compound, the “mean Hb increase from baseline at week 4” value ([5]; 8 mg daily) was 0.54 g/dL, the “mean Hb increase from baseline at week 4” value ([5]; 10 mg daily) was 0.97 g/dL and the Hb increase [6] was ~ 1.0 g/dL.
In the case of `Cc1nc(C(=O)NCC(=O)O)c(O)c2ccc(Oc3ccccc3)cc12` [FG-4592], the “subjects with Hb increase ≥ 1 g/dL from baseline” value ([7]; 0.7 mg/kg BIW) is given as 30%, the “subjects with Hb increase ≥ 1 g/dL from baseline” value ([7]; 0.7 mg/kg TIW) is given as 58% and the “subjects with Hb increase ≥ 1 g/dL from baseline” value ([7]; 1.0 mg/kg BIW) is given as 60%. The “subjects with Hb increase ≥ 1 g/dL from baseline” value ([7]; 1.0 mg/kg TIW) was 40%, the “subjects with Hb increase ≥ 1 g/dL from baseline” value ([7]; 1.5 mg/kg BIW) was 80% and the “subjects with Hb increase ≥ 1 g/dL from baseline” value ([7]; 1.5 mg/kg TIW) was 91%. For the same compound, the “subjects with Hb increase ≥ 1 g/dL from baseline” value ([7]; 2.0 mg/kg BIW) was 100%, the “subjects with Hb increase ≥ 1 g/dL from baseline” value ([7]; 2.0 mg/kg TIW) was 100% and the “subjects with Hb increase ≥ 1 g/dL (Hb response) from baseline” value ([8]; all Roxadustat treated subjects, 12 weeks) was 96%. For the same compound, the “median time to Hb response” value ([8]; each cohort) was 3 weeks, the Hb levels maintained ([9]; high-dose cohort) was 100% and the Hb levels maintained ([9]; low-dose cohort) was 59.1%. For the same compound, the Hb levels maintained ([9]; medium-dose cohort) was 88.9%, the “subjects with Hb increase ≥ 1 g/dL from baseline and Hb of ≥ 11.0 g/dL (Hb response) by week 17” value [10] was 91.6% and the “subjects with Hb increase ≥ -0.5 g/dL from baseline” value ([11]; Part 1, 6-week treatment, Roxadustat 1.5-2.0 mg/kg pool versus Epoetin Alfa arm) was 79%. The “average Roxadustat for Hb level maintenance (mean Hb ≥ 11.0 g/dL during last 4 weeks of treatment)” value ([11]; Part 2, 19-week treatment) was 1.68 ± 0.65 mg/kg TIW, the “subjects with Hb increase ≥ 1 g/dL from baseline” value ([12]; high-dose cohort) was 87.1% and the “subjects with Hb increase ≥ 1 g/dL from baseline” value ([12]; low-dose cohort) was 80%.
For `O=c1c(-n2ccnn2)c[nH]n1-c1cc(N2CCOCC2)ncn1` [Molidustat], the “mean change in Hb to evaluation period” value [13] is listed as 0.46 g/dL and the Hb increase [14] is listed as “at least 1.14 g/dL”.
